Starred links: 1 amine or outer side, 2 acyl side, 3 side chain; linkers in the order of their positions; H or OH if unused. Residues, ends and D or L forms follow the SMILES beside them. Groups on a side chain read outwards from the residue. *: point of attachment. C20 diacid = O=C(O)CCCCCCCCCCCCCCCCCCC(=O)*; γGlu = O=C(O)[C@H](CCC(=O)[*:2])N[*:1]
Legend:
Assay in all cases: NPY receptor functional assay (cAMP, HEK-CNG cells, ACTOne membrane potential dye)
Type in all cases: cell-based
human Y4 receptor = human Y4 receptor (Homo sapiens, UniProt P50391); settings: standard PP, species (human or rat) not given
Chain of human Y4 receptor (P50391 whole entry): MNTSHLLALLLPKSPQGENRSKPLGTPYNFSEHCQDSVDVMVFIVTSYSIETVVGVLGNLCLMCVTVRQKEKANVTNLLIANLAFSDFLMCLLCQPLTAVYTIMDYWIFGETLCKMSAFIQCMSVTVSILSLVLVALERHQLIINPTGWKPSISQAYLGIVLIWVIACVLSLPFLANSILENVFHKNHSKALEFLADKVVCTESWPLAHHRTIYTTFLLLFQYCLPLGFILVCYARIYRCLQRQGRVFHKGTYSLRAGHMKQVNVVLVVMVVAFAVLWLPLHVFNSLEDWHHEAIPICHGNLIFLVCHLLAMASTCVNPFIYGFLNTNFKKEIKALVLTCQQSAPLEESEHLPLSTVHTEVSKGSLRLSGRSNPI
Source text: (§1) The NPY family of G-protein coupled receptors include Y1, Y2, Y4, and Y5 in humans and rats. […] Following agonist binding, the receptor-G protein complex activates a downstream intracellular signaling cascade which leads to inhibition of adenylate cyclase and a reduction in intracellular cAMP levels.
(§2) HEK-CNG cells stably expressing the human or rat Y1, Y2, Y4 or Y5 receptors (Codex Biosolutions) were used to characterize the functional potency of peptide agonists using the ActOne™ membrane potential dye kit (Codex Biosolutions). In addition to each NPY receptor, each cell line encodes a proprietary exogenous Cyclic Nucleotide-Gated (CNG) channel (Codex Biosolutions). The channel is activated by elevated intracellular levels of cAMP, resulting in ion flux and cell membrane depolarization which can be detected with a calcium sensitive dye or fluorescent membrane potential (MP) dye. Cells were carried in growth media containing 90% DMEM, 10% FBS, 250 mcg/mL G418 and 1 mcg/mL puromycin for no more than 15 passages.
(§3) Prior to testing, cells were counted and dispensed at 14,000 cells per well (Y1, Y4 and Y5) or 28,000 cells per well (Y2) into black 384 well Poly-D-Lysine plates at 20 mcL per well. Covered plates were then incubated at room temperature for 30 minutes followed by an overnight incubation at 37° C. in 5% C02. The following day, media was removed and wells were washed once with 40 mcL Dulbecco's phosphate buffered saline. […] Ten microliters of experimental peptide or peptide standard was added in triplicate to wells and incubated for 50 minutes at room temperature in the dark. Following this incubation step, plates were read again as before (final read).
(§4) NPY receptor activation, leading to a reduction in intracellular cAMP levels, is detected as a decrease in isoproteranol induced fluorescent signal. Peptide standard and experimental values were initially transformed in excel using the formula: final read/initial read. Transformed values were then normalized to receptor specific standard values (1×10−13 M minimum and 1×10−7 M maximum) using the formula: (test value−standard minavg)/(standard maxavg−standard minavg)*100. […] Normalized data was analyzed from triplicate tests and used to estimate the EC50 for each test peptide on each receptor. Data was fit in GraphPad Prism software (v8.2.1) using a 3-parameter logistic curve model: Y=Bottom+(Top−Bottom)/(1+10^((LogEC50−X))). EC50 values were converted to pEC50 values using the formula: pEC50=−Log(EC50).

human Y5 receptor = target: T1, human Y5 receptor (Homo sapiens, UniProt Q15761); settings: NPY5R pEC50, HEK-CNG cells; standard NPY; species (human or rat) not given
T1 sequence (Q15761 1-445): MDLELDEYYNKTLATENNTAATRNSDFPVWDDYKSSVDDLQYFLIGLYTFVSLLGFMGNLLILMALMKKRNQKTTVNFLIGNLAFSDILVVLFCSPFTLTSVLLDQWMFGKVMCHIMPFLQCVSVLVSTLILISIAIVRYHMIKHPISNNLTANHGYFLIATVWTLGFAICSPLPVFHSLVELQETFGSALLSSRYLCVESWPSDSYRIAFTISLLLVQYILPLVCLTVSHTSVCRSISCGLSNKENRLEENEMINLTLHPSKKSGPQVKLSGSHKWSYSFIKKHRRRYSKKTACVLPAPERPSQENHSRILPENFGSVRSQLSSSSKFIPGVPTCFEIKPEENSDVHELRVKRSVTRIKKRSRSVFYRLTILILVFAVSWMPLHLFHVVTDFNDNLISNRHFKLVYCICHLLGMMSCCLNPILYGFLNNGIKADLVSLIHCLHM
Source text: as §1, §2, §3, §4

human Y2 receptor = target: T2, human Y2 receptor (Homo sapiens, UniProt P49146); settings: NPY2R pEC50, HEK-CNG cells; standard PYY(3-36); species (human or rat) not given
T2 sequence (P49146 1-381): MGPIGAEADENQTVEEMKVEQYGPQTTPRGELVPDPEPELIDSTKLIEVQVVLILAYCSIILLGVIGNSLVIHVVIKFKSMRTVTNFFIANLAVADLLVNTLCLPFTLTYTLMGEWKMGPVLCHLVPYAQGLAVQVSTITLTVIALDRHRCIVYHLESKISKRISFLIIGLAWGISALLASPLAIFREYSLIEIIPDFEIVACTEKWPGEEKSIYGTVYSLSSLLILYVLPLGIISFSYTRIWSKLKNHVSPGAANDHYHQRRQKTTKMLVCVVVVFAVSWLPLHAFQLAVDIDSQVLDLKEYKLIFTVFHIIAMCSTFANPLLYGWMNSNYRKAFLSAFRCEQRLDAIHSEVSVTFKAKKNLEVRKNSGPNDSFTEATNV
Source text: as §1, §2, §3, §4

| Structure (SMILES) | NPY4R pEC50 (human Y4 receptor) | EC50 (human Y5 receptor) [nM] | EC50 (human Y2 receptor) [nM] |
| --- | --- | --- | --- |
| CC(C)C[C@H](NC(=O)[C@H](CC(=O)O)NC(=O)[C@H](C)NC(=O)[C@H](Cc1ccc(O)cc1)NC(=O)[C@H](Cc1ccc(O)cc1)NC(=O)[C@H](CCCNC(=N)N)NC(=O)[C@H](CC(N)=O)NC(=O)[C@H](Cc1c[nH]c2ccccc12)NC(=O)[C@H](CCC(=O)O)NC(=O)[C@H](CCC(=O)O)NC(=O)[C@@H]1CCCN1C(=O)[C@H](CO)NC(=O)[C@H](C)NC(=O)[C@H](CC(=O)O)NC(=O)[C@H](CCCCN)NC(=O)CNC(=O)[C@@H]1CCCN1C(=O)[C@H](C)NC(=O)[C@H](CCC(=O)O)NC(=O)[C@@H]1CCCN1C(=O)[C@H](CCCCN)NC(=O)[C@@H]1CCCN1)C(=O)N[C@@H](CCCNC(=N)N)C(=O)N[C@@H](Cc1c[nH]cn1)C(=O)N[C@@H](Cc1ccc(O)cc1)C(=O)N[C@@H](CC(C)C)C(=O)N[C@@H](CC(N)=O)C(=O)N[C@@H](Cc1c[nH]c2ccccc12)C(=O)N[C@@H](CC(C)C)C(=O)N[C@H](C(=O)N[C@@H](CCCNC(=N)N)C(=O)N[C@@H](CCCCNC(=O)CC[C@H](NC(=O)CC[C@H](NC(=O)CCCCCCCCCCCCCCCCCCC(=O)O)C(=O)O)C(=O)O)C(=O)N[C@@H](CCCNC(=N)N)C(=O)N[C@@H](Cc1ccccc1)C(N)=O)[C@@H](C)O [Compound A50] | inactive | – | – |
| CC(C)C[C@H](NC(=O)[C@H](CC(=O)O)NC(=O)[C@H](C)NC(=O)[C@H](Cc1ccc(O)cc1)NC(=O)[C@H](Cc1ccc(O)cc1)NC(=O)[C@H](CCCNC(=N)N)NC(=O)[C@H](CC(N)=O)NC(=O)[C@H](Cc1c[nH]c2ccccc12)NC(=O)[C@H](CCC(=O)O)NC(=O)[C@H](CCC(=O)O)NC(=O)[C@@H]1CCCN1C(=O)[C@H](CO)NC(=O)[C@H](C)NC(=O)[C@H](CC(=O)O)NC(=O)[C@H](CCCCN)NC(=O)CNC(=O)[C@@H]1CCCN1C(=O)[C@H](C)NC(=O)[C@H](CCC(=O)O)NC(=O)[C@@H]1CCCN1C(=O)[C@H](CCCCN)NC(=O)[C@@H]1CCCN1)C(=O)N[C@@H](CCCNC(=N)N)C(=O)N[C@@H](Cc1c[nH]cn1)C(=O)N[C@@H](Cc1ccc(O)cc1)C(=O)N[C@@H](CC(C)C)C(=O)N[C@@H](CCCCNC(=O)CC[C@H](NC(=O)CC[C@H](NC(=O)CCCCCCCCCCCCCCCCCCC(=O)O)C(=O)O)C(=O)O)C(=O)N[C@@H](Cc1c[nH]c2ccccc12)C(=O)N[C@@H](CC(C)C)C(=O)N[C@H](C(=O)N[C@@H](CCCNC(=N)N)C(=O)N[C@@H](CCC(N)=O)C(=O)N[C@@H](CCCNC(=N)N)C(=O)N[C@@H](Cc1ccccc1)C(N)=O)[C@@H](C)O [Compound A51] | inactive | – | – |
| CC(C)C[C@H](NC(=O)[C@H](CC(=O)O)NC(=O)[C@H](CCCCN)NC(=O)[C@H](Cc1ccc(O)cc1)NC(=O)[C@H](Cc1ccc(O)cc1)NC(=O)[C@H](CCCNC(=N)N)NC(=O)[C@H](CC(N)=O)NC(=O)[C@H](Cc1c[nH]c2ccccc12)NC(=O)[C@H](CCC(=O)O)NC(=O)[C@H](CCCCNC(=O)CC[C@H](NC(=O)CC[C@H](NC(=O)CCCCCCCCCCCCCCCCCCC(=O)O)C(=O)O)C(=O)O)NC(=O)[C@@H]1CCCN1C(=O)[C@H](CO)NC(=O)[C@H](C)NC(=O)[C@H](CC(=O)O)NC(=O)[C@H](CCCCN)NC(=O)CNC(=O)[C@@H]1CCCN1C(=O)[C@H](CCCCN)NC(=O)[C@H](CCC(=O)O)NC(=O)[C@@H]1CCCN1C(=O)[C@H](CCCCN)NC(=O)[C@@H]1CCCN1)C(=O)N[C@@H](CCCNC(=N)N)C(=O)N[C@@H](Cc1c[nH]cn1)C(=O)N[C@@H](Cc1ccc(O)cc1)C(=O)N[C@@H](CC(C)C)C(=O)N[C@@H](CC(N)=O)C(=O)N[C@@H](Cc1c[nH]c2ccccc12)C(=O)N[C@@H](CC(C)C)C(=O)N[C@H](C(=O)N[C@@H](CCCNC(=N)N)C(=O)N[C@@H](CCC(N)=O)C(=O)N[C@@H](CCCNC(=N)N)C(=O)N[C@@H](Cc1ccccc1)C(N)=O)[C@@H](C)O [Compound A70] (H-PKPEKPGKDASPK([γGlu-γGlu-C20 diacid])EWNRYYKDLRHYLNWLTRQRF-NH2; N-terminus assumed) | – | 2 | 0.0398 |
| CC(C)C[C@H](NC(=O)[C@H](CC(=O)O)NC(=O)[C@H](CCCCN)NC(=O)[C@H](Cc1ccc(O)cc1)NC(=O)[C@H](Cc1ccc(O)cc1)NC(=O)[C@H](CCCNC(=N)N)NC(=O)[C@H](CC(N)=O)NC(=O)[C@H](Cc1c[nH]c2ccccc12)NC(=O)[C@H](CCC(=O)O)NC(=O)[C@H](CCCCN)NC(=O)[C@@H]1CCCN1C(=O)[C@H](CO)NC(=O)[C@H](C)NC(=O)[C@H](CC(=O)O)NC(=O)[C@H](CCCCN)NC(=O)CNC(=O)[C@@H]1CCCN1C(=O)[C@H](CCCCNC(=O)CC[C@H](NC(=O)CC[C@H](NC(=O)CCCCCCCCCCCCCCCCCCC(=O)O)C(=O)O)C(=O)O)NC(=O)[C@H](CCC(=O)O)NC(=O)[C@@H]1CCCN1C(=O)[C@H](CCCCN)NC(=O)[C@@H]1CCCN1)C(=O)N[C@@H](CCCNC(=N)N)C(=O)N[C@@H](Cc1c[nH]cn1)C(=O)N[C@@H](Cc1ccc(O)cc1)C(=O)N[C@@H](CC(C)C)C(=O)N[C@@H](CC(N)=O)C(=O)N[C@@H](Cc1c[nH]c2ccccc12)C(=O)N[C@@H](CC(C)C)C(=O)N[C@H](C(=O)N[C@@H](CCCNC(=N)N)C(=O)N[C@@H](CCC(N)=O)C(=O)N[C@@H](CCCNC(=N)N)C(=O)N[C@@H](Cc1ccccc1)C(N)=O)[C@@H](C)O [Compound A71] (H-PKPEK([γGlu-γGlu-C20 diacid])PGKDASPKEWNRYYKDLRHYLNWLTRQRF-NH2; N-terminus assumed) | – | 1.58 | 0.02 |
| CC(C)C[C@H](NC(=O)[C@H](CC(=O)O)NC(=O)[C@H](CCCCN)NC(=O)[C@H](Cc1ccc(O)cc1)NC(=O)[C@H](Cc1ccc(O)cc1)NC(=O)[C@H](CCCNC(=N)N)NC(=O)[C@H](CC(=O)O)NC(=O)[C@H](Cc1c[nH]c2ccccc12)NC(=O)[C@H](CCC(=O)O)NC(=O)[C@H](CCCCN)NC(=O)[C@@H]1CCCN1C(=O)[C@H](CO)NC(=O)[C@H](C)NC(=O)[C@H](CC(=O)O)NC(=O)[C@H](CCC(=O)O)NC(=O)CNC(=O)[C@@H]1CCCN1C(=O)[C@H](CCCCNC(=O)CC[C@H](NC(=O)CC[C@H](NC(=O)CCCCCCCCCCCCCCCCCCC(=O)O)C(=O)O)C(=O)O)NC(=O)[C@H](CCC(=O)O)NC(=O)[C@@H]1CCCN1C(=O)[C@H](CCCCN)NC(=O)[C@@H]1CCCN1)C(=O)N[C@@H](CCCNC(=N)N)C(=O)N[C@@H](Cc1c[nH]cn1)C(=O)N[C@@H](Cc1ccc(O)cc1)C(=O)N[C@@H](CC(C)C)C(=O)N[C@@H](CC(N)=O)C(=O)N[C@@H](Cc1c[nH]c2ccccc12)C(=O)N[C@@H](CC(C)C)C(=O)N[C@H](C(=O)N[C@@H](CCCNC(=N)N)C(=O)N[C@@H](CCC(N)=O)C(=O)N[C@@H](CCCNC(=N)N)C(=O)N[C@@H](Cc1ccccc1)C(N)=O)[C@@H](C)O [Compound A78] | – | 3.16 | 0.0631 |

From US12122816B2, “Long acting peptide tyrosine tyrosine (PYY) analogs and methods of use” (Intarcia Therapeutics, Inc., priority 2020, dated 2024)
